Literature values as cited in patent publication US20210113461A1, “Methods of Treating Fungal Infections” (CIPLA TECHNOLOGIES LLC, priority 2018, published 2021).
Where two headings read alike, the source gives them in different places.

Legend:
[1] = oral solution
[2] = test system: plasma protein

half-life at steady state [1]: 39.7 ± 13 h | steady-state AUC0-24h under fasted conditions as % of exposure under fed conditions [1]: 131±30% | mean AUC0-24h at steady-state ([1]; 200 mg daily dose, fasted): 29,271±10,285 ng·h/mL | mean Cmax at steady-state ([1]; 200 mg daily dose, fasted): 1,963±601 ng/mL | mean tmax at steady-state ([1]; 200 mg daily dose, fasted): 2.5 ± 0.8 h | increase of bioavailability under fasted conditions ([1]; healthy volunteers): 30% | bound by plasma protein ([2]; capsules): 99.6% | bound by plasma protein ([2]; oral solution): 99.8%
Structure (SMILES): CCC(C)n1ncn(-c2ccc(N3CCN(c4ccc(OCC5COC(Cn6cncn6)(c6ccc(Cl)cc6Cl)O5)cc4)CC3)cc2)c1=O (centres unmarked) [Itraconazole, itraconazole]
